The numbers were not newly measured in US20090148430A1, “HUMAN OBESITY SUSCEPTIBILTY GENE ENCODING POTASSIUM ION CHANNELS AND USES THEREOF” (priority 2004, published 2009), which cites them from elsewhere.

Data set [1] relates to Kv channel. The settings on record: extracellular application, MASMC and intestinal epithelial cells, rats.
A further data set deals with Kv1.5 (Rattus norvegicus, UniProt P19024). To be noted: independent of effects on PTK activity.
A further data set has as its system pig Kv1.5. The settings on record: expressed in Xenopus oocytes; read-out: IC(50) block of pig Kv1.5.
The target in data set [2] is T1, cloned rat brain potassium channel Kv1.1 (Rattus norvegicus, UniProt P10499).
T1 construct: host or cells: Xenopus laevis oocytes
T1 sequence (P10499 whole entry): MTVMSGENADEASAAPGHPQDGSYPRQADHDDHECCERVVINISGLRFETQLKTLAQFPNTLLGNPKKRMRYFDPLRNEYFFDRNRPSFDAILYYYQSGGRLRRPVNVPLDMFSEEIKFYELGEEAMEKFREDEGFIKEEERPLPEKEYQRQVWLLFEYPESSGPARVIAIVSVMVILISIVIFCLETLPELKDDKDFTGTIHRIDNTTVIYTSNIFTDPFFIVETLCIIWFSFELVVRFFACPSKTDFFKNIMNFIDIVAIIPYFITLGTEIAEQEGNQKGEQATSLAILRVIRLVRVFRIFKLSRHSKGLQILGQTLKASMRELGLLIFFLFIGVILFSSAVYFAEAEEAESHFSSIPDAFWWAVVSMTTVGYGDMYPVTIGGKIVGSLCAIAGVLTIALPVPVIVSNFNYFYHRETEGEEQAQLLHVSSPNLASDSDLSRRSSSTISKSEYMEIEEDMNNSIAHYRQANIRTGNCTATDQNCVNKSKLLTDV
To be noted: Kv1.1, Xenopus laevis oocytes.

Data set [3] has as its system Kv channel. The settings on record: vascular smooth muscle cells.
Data set [4] deals with KV currents including Kv1.1. To be noted: mammalian neurons, therapeutic levels.
The conditions of data set [5]: intranasal, healthy controls.
For data set [6] the following is noted: massively obese child with leptin deficiency mutation.

pIC50: −log10 of the molar value.

Kv1.5, sequence (P19024 whole entry): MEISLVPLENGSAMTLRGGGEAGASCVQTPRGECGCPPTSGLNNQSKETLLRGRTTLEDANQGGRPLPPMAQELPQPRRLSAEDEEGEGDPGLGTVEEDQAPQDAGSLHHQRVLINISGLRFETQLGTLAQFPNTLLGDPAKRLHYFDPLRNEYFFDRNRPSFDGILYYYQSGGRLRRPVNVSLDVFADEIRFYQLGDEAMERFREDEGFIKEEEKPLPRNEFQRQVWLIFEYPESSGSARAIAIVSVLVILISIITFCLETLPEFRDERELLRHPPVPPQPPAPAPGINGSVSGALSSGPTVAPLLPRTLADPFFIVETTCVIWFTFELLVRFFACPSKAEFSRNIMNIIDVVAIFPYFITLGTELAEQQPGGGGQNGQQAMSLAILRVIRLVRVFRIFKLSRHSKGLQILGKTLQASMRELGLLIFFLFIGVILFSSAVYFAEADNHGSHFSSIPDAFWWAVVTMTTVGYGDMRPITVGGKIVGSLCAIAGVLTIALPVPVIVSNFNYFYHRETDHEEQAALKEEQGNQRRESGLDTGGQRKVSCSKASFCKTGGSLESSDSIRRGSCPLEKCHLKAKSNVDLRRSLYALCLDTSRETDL

Regarding `Nc1ccncc1` [4-aminopyridine], the “effect of K+ channel blockade” value in the data set with Kv channel [1] is listed as “anorexic effect”. Consider `COc1cc2ncnc(Nc3cccc(Cl)c3)c2cc1OC` [AG-1478], for which the “action on Kv1.5 currents” value at Kv1.5 is “open-channel blocker”. Consider `COc1ccc(CC(=O)NCc2ccccc2-c2ccccc2C(=O)NCCc2cccnc2)cc1` [AVE0118], for which the pIC50 in the data set with pig Kv1.5 is 5.27. On to `C1CCc2nnnn2CC1` [PTZ, pentylenetetrazol], for which, in data set [2] (more negative potentials), the “effect on potassium currents at more negative potentials” value was “increased the potassium currents”. Besides, the “effect on potassium currents at more positive potentials” value in data set [2] (more positive potentials) was “decreased them”. As to `C=C1C[C@@]2(O)[C@@H]3CC[C@@]4(C)[C@@H]5C=CC(=O)OC[C@]5(C(C)OC(C)=O)[C@@H](OC(C)=O)[C@@H](OC(C)=O)[C@@H]4[C@@]3(C)[C@H](OC(C)=O)[C@H](OC(C)=O)[C@@]2(C)C2(C(=O)OC)O[C@H]12` (some centres unmarked) [correolide], in the data set on guinea-pig ileum, the “pressure threshold for eliciting peristaltic contractions” value (shortened to “pressure threshold”) was “progressive and sustained reduction”. On to `CCN[C@@H](C)Cc1cccc(C(F)(F)F)c1` [dexenfluramine], for which the Kv channel activity entry in the data set on Kv channel [3] is “decrease Kv channel activity”.

Consider `CCNC(C)Cc1cccc(C(F)(F)F)c1` (centres unmarked) [fenfluramine], for which the Kv channel activity entry with Kv channel [3] is given as “decrease Kv channel activity”. In the case of `CNCCC(Oc1ccc(C(F)(F)F)cc1)c1ccccc1` (centres unmarked) [fluoxetine], in [4], the “block of KV currents including Kv1.1” value is reported as “can occur at therapeutic levels”. In the case of “ACTH4-10: adrenocorticotropin4-10, representing a core sequence of all melanocortins (MEHFRWG; Corticotropin; UniProt P01189 141-147, looked up, fragment)”, in [5], the body fat mass entry is given as “reduced”, the plasma leptin concentrations result was “reduced” and the weight result is given as “reduced”. In the case of “Kaliotoxin: a Kv1.1 and Kv1.3 channel blocker”, in the data set with rats, the associative learning entry is listed as “improves associative learning”. As for alpha-dendrotoxin, in the data set with guinea-pig ileum, the peristaltic activity entry is reported as “increases the peristaltic activity” and the “pressure threshold” value is on record as “immediate reduction”. Consider dendrotoxin-K, for which, in the data set on guinea-pig ileum, the peristaltic activity result was “increases the peristaltic activity” and the “pressure threshold” value was “immediate reduction”. Turning to “margatoxin (TIINVKCTSPKQCLPPCKAQFGQSAGAKCMNGKCKCYPH; UniProt P40755 1-39, looked up)”, in the data set on guinea-pig ileum, the peristaltic activity entry is “increases the peristaltic activity” and the “pressure threshold” value is given as “immediate reduction”. Regarding “recombinant leptin: recombinant leptin used to treat a child with a leptin deficiency mutation”, the treatment outcome in data set [6] is “treated successfully”.
